Laboratory results as given in patent US7589078B2, “Anti-viral nucleoside analogs and methods for treating viral infections, especially HIV infections” (Yale University, priority 2003, dated 2009).
Read-outs that look alike come from different tables or passages of the source.

How the values were obtained:
CEM cells = assay: Cellular toxicity in CEM cells (cell counts); settings: for IC50: read-out: Cellular ID50
Protocol: The basic procedures are similar. The cells are seeded a low concentration, then serial dilutions of test compound are added. […] After 48 to 96 h incubation at 37° C. in a 5% CO2 humidified incubator the assay is ended. The drug treated samples are compared to the untreated controls. This is accomplished in suspension cell lines by counting cell numbers either with a hemocytometer or by using a Coulter Counter.
The numbers in parentheses represent the mean and standard deviations of percentage of untreated CEM control cells at the concentration indicated.

[1] = test system: mtDNA content of CEM cells; assay: Mitochondrial DNA content in CEM cells (Southern blot); assay type: cell-based; settings: for IC50: four days, read-out: Mitochondrial DNA Content ID50
Protocol: Mitochondrial DNA: The effect of nucleoside analogs on mtDNA content was assessed as described previously (2). […] Cells treated with drugs at various concentrations either as single agents or in combination were grown for four days. Cells were then harvested, treated with proteinase K and DNase free RNase. Extracts were applied to nylon membranes and hybridized with an mtDNA probe. After stripping the membrane the load was normalized by rehybridizing the membrane with an Alu probe. Blots were quantitated with a Molecular Dynamics personal densitometer SI with ImageQuaNT analysis software.

MT-2 cells = assay: Cellular toxicity, MT-2 cell growth; assay type: cell-based; settings: MT-2 cells; read-out: ID50: concentration required to inhibit MT-2 cell growth by 50%
Excerpt: (§1) The basic procedures are similar.

thymidine kinase (TK-1) [2] = biological target: T1, thymidine kinase (TK-1) (Homo sapiens, UniProt P04183); assay: Thymidine kinase assay with added nucleoside ([14C]-dThd to dTMP); settings: [14C]-dThd 25 μM, added nucleoside 250 μM; compared to reactions with no additions
T1 sequence (P04183 1-234): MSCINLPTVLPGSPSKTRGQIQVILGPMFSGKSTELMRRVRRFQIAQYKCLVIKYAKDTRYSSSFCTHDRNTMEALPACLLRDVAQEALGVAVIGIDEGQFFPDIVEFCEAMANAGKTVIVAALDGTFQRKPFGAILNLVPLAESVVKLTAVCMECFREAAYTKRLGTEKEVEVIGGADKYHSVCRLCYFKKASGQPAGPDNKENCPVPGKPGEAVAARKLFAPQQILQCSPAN
Protocol: After two additional washes in ethanol, the discs were dried and placed in scintillation vials that contained 5 ml SafeScint Scintillation Cocktail (American Bioanalytical, Natick, Mass.). The amount of radioactivity, which represents the amount of dTMP formed, was quantitated in a Beckman LS5000TD Scintillation Counter (Beckman Instruments Inc., Palo Alto, Calif.).

HIV-1 strain IIIB [3] = assay: Antiviral activity in MT-2 cells infected with HIV-1 strain IIIB (MTT); assay type: cell-based
Protocol: Determination of antiviral activity: Compounds were tested in MT-2 cells infected with HIV-1 strain IIIB essentially as described previously (31). […]. Calculations of the percent protection and isobologram combination studies are described (12).

thymidine kinase (TK-1) [4] = biological target: T1, thymidine kinase (TK-1); assay: Monophosphorylation of analogs by thymidine kinase; assay type: biochemical; design: phosphorylated by thymidine kinase (TK-1) from CEM cells; endogenous in cells; settings: for Relative Vmax: 250 μM dThd or analog, 2.4 mM ATP, 0.07 unit TK-1, 37° C., 285 min, dThd = 100
Protocol: Monophosphorylation of Analogs by Thymidine Kinase: All the analogs were tested for their ability to be phosphorylated by thymidine kinase (TK-1) from CEM cells. This enzyme was purified by an affinity column technique developed in this laboratory (7). […] At the end of the incubation time the reaction was stopped by the addition of 3 parts cold HPLC grade methanol. After incubating on ice for at least 10 min. the methanol insoluble material is precipitated by centrifugation and the methanol soluble supernatants were placed into clean microfuge tubes. These samples were brought to dryness in a Speedvac Centrifuge. The samples were dissolved in water and separated on a Shimatzu HPLC model SCL 10Avp using a gradient of water to 300 mM potassium phosphate and a Whatman 10/25 particle SAX column. Km and relative Vmax studies were done in a similar fashion, using the same mixture and different amounts of substrate and enzyme.

HIV-1 strain IIIB [5] = settings: MT-2 cells; EC50 reported previously (17); read-out: EC50: effective concentration required to achieve 50% protection from HIV in MT-2 cells; cited from earlier work
[6] = biological target: T2, thymidine phosphorylase (TP) (Homo sapiens, UniProt P19971); assay: Thymidine phosphorylase assay; assay type: in vitro ADME; settings: partially purified TP from human liver, 100 μM nucleoside, 37° C., FIG. 11
T2 construct: using a partially purified prepartion of human liver extract (28) as a source of the thymidine phosphorylase (TP); from tissue; host or cells: human liver extract, partially purified
T2 sequence (P19971 11-482): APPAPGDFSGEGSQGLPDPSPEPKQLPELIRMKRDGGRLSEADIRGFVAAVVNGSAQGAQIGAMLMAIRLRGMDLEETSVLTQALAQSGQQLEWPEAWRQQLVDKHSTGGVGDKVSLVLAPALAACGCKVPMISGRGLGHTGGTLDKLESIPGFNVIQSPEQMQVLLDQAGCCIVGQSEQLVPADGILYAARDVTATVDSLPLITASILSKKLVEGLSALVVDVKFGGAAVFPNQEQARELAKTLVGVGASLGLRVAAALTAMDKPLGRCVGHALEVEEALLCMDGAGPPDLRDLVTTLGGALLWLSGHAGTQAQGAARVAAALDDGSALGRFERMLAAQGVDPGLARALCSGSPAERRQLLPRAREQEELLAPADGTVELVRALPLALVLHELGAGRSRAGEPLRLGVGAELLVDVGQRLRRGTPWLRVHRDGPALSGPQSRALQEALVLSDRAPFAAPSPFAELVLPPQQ
Protocol: Thymidine Phosphorylase Assays: Nucleoside analogs (100 μM) were incubated in 75 mM potassium phosphate buffer pH 7.3 at 37° C. using a partially purified prepartion of human liver extract (28) as a source of the thymidine phosphorylase (TP). After incubation, the reaction was stopped by the addition of trichloroacetic acid to a final concentration of 15%. The samples were then incubated on ice. After the acid insoluble components were removed by centrifugation, the supernatant was neutralized by two extractions with one half volume of trioctylamine/freon (45:55). The aqueous supernatants were examined by HPLC using the Beckman ODS column method, as described in Acid Stability Studies.

H-9 cells = assay: Toxicity in H-9 cells alone and in combination (Coulter Counter); assay type: cell-based; settings: H-9 cells, 48 h
Excerpt: as §1

[7] = CEM cells, four day cell growth, cell counts vs untreated controls
[8] = MT-2 cells, HIV-1 IIIB, read-out: EC50: effective concentration required to achieve 50% protection from HIV in MT-2 cells
[9] = Human immunodeficiency virus 1, MT2, MT-2/HIV IIIB system, FIG. 10, read-out: EC50 for single agents (isobologram study)

| Percent of Activity (thymidine kinase (TK-1) [2]) [%] | EC50 (HIV-1 strain IIIB [3]; [8]) [µM] | Relative Vmax (thymidine kinase (TK-1) [4]) | SMILES | IC50 (MT-2 cells) [µM] | IC50 (CEM cells; [7]) [µM] | Cell count, percentage of untreated CEM control cells (CEM cells; CEM cells, at 100 μM) [%] | further results |
| --- | --- | --- | --- | --- | --- | --- | --- |
| 53.2 ± 9.2 | > 100 | 3.9 ± 1.0 | Cc1cn([C@H]2C=C[C@@](C#CCl)(CO)O2)c(=O)[nH]c1=O [4′-ethynylchloro D4T] | 63.3 ± 20.8 | 62.6 ± 10 |  |  |
| 99.5 ± 6.9 |  | 1.8 ± 0.5 | C=C[C@@]1(CO)C=C[C@H](n2cc(C)c(=O)[nH]c2=O)O1 [4′-vinyl D4T] | > 100 | > 100 | 78 ± 21 | Rate of conversion to the monophosphate form (thymidine kinase (TK-1) [4]; purified human TK-1): approximately 2% of dThd; EC50 (HIV-1 strain IIIB [5]): > 100 µM |
| 103.8 ± 9.9 |  | 1.6 ± 0.5 | Cc1cn([C@H]2C=C[C@@](C)(CO)O2)c(=O)[nH]c1=O [4′-methyl D4T] | > 100 | > 100 | 114 ± 2 | Rate of conversion to the monophosphate form (thymidine kinase (TK-1) [4]; purified human TK-1): approximately 2% of dThd; EC50 (HIV-1 strain IIIB [5]): > 100 µM |
| 5.4 ± 2.3 |  | 55.5 ± 9.7 | Cc1cn([C@H]2C[C@H](N=[N+]=[N-])[C@@H](CO)O2)c(=O)[nH]c1=O [AZT, 3′-Azido-3′-deoxythymidine, reference compound] |  |  |  | Rate of phosphorylation by TK-1, in words (thymidine kinase (TK-1) [4]; purified human TK-1): half as fast as dThd |
| 110.8 ± 9.0 | > 100 | 0.4 ± 0.2 | C=CC[C@@]1(CO)C=C[C@H](n2cc(C)c(=O)[nH]c2=O)O1 [4′-allyl D4T] | > 100 | > 100 |  |  |

More lines, now with the values behind:

| SMILES | Percent of Activity (thymidine kinase (TK-1) [2]) [%] | EC50 (HIV-1 strain IIIB [3]; [8]) [µM] | Relative Vmax (thymidine kinase (TK-1) [4]) | IC50 (MT-2 cells) [µM] | IC50 (CEM cells; [7]) [µM] | Cell count, percentage of untreated CEM control cells (CEM cells; CEM cells, at 100 μM) [%] | further results |
| --- | --- | --- | --- | --- | --- | --- | --- |
| Nc1ccn([C@H]2CC[C@@H](CO)O2)c(=O)n1 [ddC, 2′,3′-dideoxycytidine, reference compound] |  |  |  |  |  |  | IC50 (CEM cells; Homo sapiens, CCRF-CEM, 96 h): 5.5 ± 1.8 µM; IC50 ([1]; Homo sapiens, CCRF-CEM, 96 h): 0.15 ± 0.12 µM |
| Cc1cn([C@H]2C[C@H](O)[C@@H](CO)O2)c(=O)[nH]c1=O [dThd] |  |  |  |  |  |  | Break down by thymidine phosphorylase [6]: broke down very quickly |
| Nc1ccn([C@@H]2CS[C@H](CO)O2)c(=O)n1 [3TC, β-L-2′,3′-dideoxy-3′-thiacytidine, reference compound] |  |  |  |  |  |  | Percent of Untreated Controls (H-9 cells; 5 μM 3TC alone): 99 ± 3%; Percent of Untreated Controls (H-9 cells; 20 μM 3TC alone): 94 ± 3%; Percent of Untreated Controls (H-9 cells; 100 μM 3TC alone): 108 ± 12%; Cell count, percentage of untreated CEM control cells (CEM cells; CEM cells, at 200 μM): 77 ± 28%; IC50 (CEM cells; Homo sapiens, CCRF-CEM, 96 h): > 200 µM; IC50 ([1]; Homo sapiens, CCRF-CEM, 96 h): > 200 µM; Mitochondrial DNA content, percentage of untreated CEM control cells ([1]; at 200 μM): 114 ± 2%; EC50 (HIV-1 strain IIIB [3]; [9]): 1 µM |
| Nc1nc(=O)n([C@@H]2C=C[C@H](CO)O2)cc1F [LFd4C, β-L-2′,3′-dideoxy-2′,3′-didehydro-5-fluorocytidine, reference compound] |  |  |  |  |  |  | Percent of Untreated Controls (H-9 cells; 5 μM LFd4C alone): 73 ± 9%; Percent of Untreated Controls (H-9 cells; 10 μM LFd4C alone): 56 ± 4%; EC50 (HIV-1 strain IIIB [3]; [9]): 0.18 µM |
| Cc1cn([C@H]2C=C[C@@](C#N)(CO)O2)c(=O)[nH]c1=O [4′-cyano D4T] | 71.8 ± 8.2 | 7 ± 2.6 | 1.1 ± 0.2 | > 100 | > 100 | 60 ± 1 | Mitochondrial DNA content, percentage of untreated CEM control cells ([1]; at 100 μM): 264 ± 23%; IC50 [1]: > 100 µM; Anti-HIV activity compared with D4T (HIV-1 strain IIIB [3]; MT-2/IIIB anti HIV-1 system, FIG. 8): less active than D4T |
